This assay has as its target BK channels heterologously expressed in Xenopus laevis oocytes (Homo sapiens, UniProt Q12791). The conditions noted are these: 30 μM compound added after stable current level, step from −40 mV (5 s) to +30 mV (1 s), repeated, FIG. 1.

Sequence of BK channels heterologously expressed in Xenopus laevis oocytes (Q12791 whole entry): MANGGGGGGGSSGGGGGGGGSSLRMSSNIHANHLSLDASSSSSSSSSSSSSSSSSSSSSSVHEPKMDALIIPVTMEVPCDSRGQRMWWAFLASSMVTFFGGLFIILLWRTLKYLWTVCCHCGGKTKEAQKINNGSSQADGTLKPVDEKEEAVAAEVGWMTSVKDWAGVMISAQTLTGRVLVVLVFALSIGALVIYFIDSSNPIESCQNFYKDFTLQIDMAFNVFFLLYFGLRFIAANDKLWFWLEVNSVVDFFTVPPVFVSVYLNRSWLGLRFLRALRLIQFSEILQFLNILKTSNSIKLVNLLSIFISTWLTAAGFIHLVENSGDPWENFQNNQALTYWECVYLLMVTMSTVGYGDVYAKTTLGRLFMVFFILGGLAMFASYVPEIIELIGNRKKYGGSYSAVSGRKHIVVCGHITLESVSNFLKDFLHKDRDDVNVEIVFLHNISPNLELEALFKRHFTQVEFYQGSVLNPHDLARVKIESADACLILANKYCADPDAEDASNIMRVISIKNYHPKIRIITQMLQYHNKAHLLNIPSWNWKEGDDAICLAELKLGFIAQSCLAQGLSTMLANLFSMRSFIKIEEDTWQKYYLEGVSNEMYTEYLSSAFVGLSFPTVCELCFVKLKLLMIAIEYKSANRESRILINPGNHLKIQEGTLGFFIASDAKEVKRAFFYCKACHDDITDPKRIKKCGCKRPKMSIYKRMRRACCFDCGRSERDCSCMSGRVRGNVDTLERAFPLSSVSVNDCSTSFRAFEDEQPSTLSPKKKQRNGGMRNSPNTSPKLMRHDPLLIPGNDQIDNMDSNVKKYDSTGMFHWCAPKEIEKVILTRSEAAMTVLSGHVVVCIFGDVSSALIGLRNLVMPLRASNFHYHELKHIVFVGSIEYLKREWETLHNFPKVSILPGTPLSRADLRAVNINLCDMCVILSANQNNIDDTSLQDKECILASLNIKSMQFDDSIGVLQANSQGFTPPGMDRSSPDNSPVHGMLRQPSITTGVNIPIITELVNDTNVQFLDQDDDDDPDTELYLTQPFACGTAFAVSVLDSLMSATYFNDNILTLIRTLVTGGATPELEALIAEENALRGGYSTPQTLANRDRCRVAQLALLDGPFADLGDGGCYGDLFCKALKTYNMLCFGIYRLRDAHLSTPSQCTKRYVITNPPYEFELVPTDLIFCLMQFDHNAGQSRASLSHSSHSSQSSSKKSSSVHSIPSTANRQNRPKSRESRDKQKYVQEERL
Procedure: The electrical current through the BK channel is measured conventional two-electrode voltage clamp. BK current is activated by repeated step protocols. In brief, this protocol goes from a resting membrane potential of −40 mV lasting for 5 s to a depolarised step to +30 mV lasting for 1 s. The protocol was repeated continuously.
Having reached a stable current level, Compound A (30 μM), was added.

On to `O=C(NNc1ccc(-c2ccc(C(F)(F)F)cc2)cc1-c1nnn[nH]1)c1cc(C(F)(F)F)cc(C(F)(F)F)c1` [Compound A, 3,5-Bis-trifluoromethyl-benzoic acid N40-[3-(1H-tetrazol-5-yl)-4′-trifluoromethyl-biphenyl-4-yl]-hydrazide], for which the “current activated by depolarisation (BK channel opening activity)” value is listed as “marked increase”.

The values are drawn from patent publication US20100137327A1, “NOVEL SEM[…] CARBONYLHYDRAZIDE DERIVATIVES USEFUL AS POTASSIUM CHANNEL MODULATORS” (NeuroSearch A/S, priority 2007, published 2010).
